# Molecular target: ALK2 (Homo sapiens (Human), UniProt Q04771)
# Test: ALK2 inhibition, LanthaScreen Eu Kinase Binding Assay (ThermoFisher Scientific / Life Technologies)
# Details: read-out: Measured Ki (IC50) Value for Compounds: IC50
# Experimental: Biochemical assays to measure the inhibitory effects of the compounds were performed by ThermoFisher Scientific (Life Technologies). ALK2 inhibition was tested using LanthaScreen™ Eu Kinase Binding Assay screening protocol.
# Sequence of ALK2 (Q04771 21-509): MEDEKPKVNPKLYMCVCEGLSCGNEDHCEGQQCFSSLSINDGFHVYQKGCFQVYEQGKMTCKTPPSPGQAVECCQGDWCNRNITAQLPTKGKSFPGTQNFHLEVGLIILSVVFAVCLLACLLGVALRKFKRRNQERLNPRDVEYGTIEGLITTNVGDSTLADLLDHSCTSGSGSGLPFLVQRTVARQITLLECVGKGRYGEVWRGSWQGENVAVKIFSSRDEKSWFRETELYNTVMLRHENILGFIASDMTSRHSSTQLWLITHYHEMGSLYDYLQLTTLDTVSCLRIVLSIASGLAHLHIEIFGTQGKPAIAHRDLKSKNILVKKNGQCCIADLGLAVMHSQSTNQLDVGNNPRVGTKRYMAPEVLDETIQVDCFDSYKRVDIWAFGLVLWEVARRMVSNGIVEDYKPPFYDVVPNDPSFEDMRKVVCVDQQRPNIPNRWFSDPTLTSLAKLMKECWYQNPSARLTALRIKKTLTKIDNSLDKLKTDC
row,Compound,IC50 [nM]
1,"COc1cc(-n2cnc(Nc3nc4c(c(N5CCC[C@H]5CO)n3)CCN(CC(N)=O)C4)c2)cc(OC)c1OC [Compound 218a, (S)-2-(4-(2-(hydroxymethyl)pyrrolidin-1-yl)-2-((1-(3,4,5-trimethoxyphenyl)-1H-imidazol-4-yl)amino)-5,6-dihydropyrido[3,4-d]pyrimidin-7(8H)-yl)acetamide]",< 100
2,"COc1cc(-n2cnc(Nc3nc4c(c(N5CCC[C@H]5CO)n3)CCN(Cc3ccc(C#N)cc3)C4)c2)cc(OC)c1OC [Compound 219a, (S)-4-((4-(2-(hydroxymethyl)pyrrolidin-1-yl)-2-((1-(3,4,5-trimethoxyphenyl)-1H-imidazol-4-yl)amino)-5,6-dihydropyrido[3,4-d]pyrimidin-7(8H)-yl)methyl)benzonitrile]",< 100
3,"COc1cc(-n2cnc(Nc3nc4c(c(N5CCC[C@H]5CO)n3)CCN(Cc3cccc(C#N)c3)C4)c2)cc(OC)c1OC [Compound 220a, (S)-3-((4-(2-(hydroxymethyl)pyrrolidin-1-yl)-2-((1-(3,4,5-trimethoxyphenyl)-1H-imidazol-4-yl)amino)-5,6-dihydropyrido[3,4-d]pyrimidin-7(8H)-yl)methyl)benzonitrile]",< 100
4,"COc1cc2nc(Nc3cn(-c4cc(OC)c(OC)c(OC)c4)cn3)nc(N3CCC[C@H]3CO)c2cc1OC [Compound 221c, (S)-(1-(6,7-dimethoxy-2-((1-(3,4,5-trimethoxyphenyl)-1H-imidazol-4-yl)amino)quinazolin-4-yl)pyrrolidin-2-yl)methanol]",< 100
5,"COc1cc(-n2cnc(Nc3nc(N4CCC[C@H]4C(C)(C)O)c4cccn4n3)c2)cc(OC)c1OC [Compound 222b, (S)-2-(1-(2-((1-(3,4,5-trimethoxyphenyl)-1H-imidazol-4-yl)amino)pyrrolo[2,1-f][1,2,4]triazin-4-yl)pyrrolidin-2-yl)propan-2-ol]",< 100
6,"COc1cc(-n2cnc(Nc3nc(N4CC(F)(F)C[C@H]4CO)c4cccn4n3)c2)cc(OC)c1OC [Compound 223b, (S)-(4,4-difluoro-1-(2-((1-(3,4,5-trimethoxyphenyl)-1H-imidazol-4-yl)amino)pyrrolo[2,1-f][1,2,4]triazin-4-yl)pyrrolidin-2-yl)methanol]",< 100
7,"COc1cc(-n2cnc(Nc3nc4c(c(N5CCCC5)n3)CN(Cc3ccccc3)CC4)c2)cc(OC)c1OC [Compound 224b, 6-benzyl-4-(pyrrolidin-1-yl)-N-(1-(3,4,5-trimethoxyphenyl)-1H-imidazol-4-yl)-5,6,7,8-tetrahydropyrido[4,3-d]pyrimidin-2-amine]",< 100
8,"COc1cc(-n2cnc(Nc3nc4c(c(N5CCCC5)n3)CCN(Cc3ccccc3)C4)c2)cc(OC)c1OC [Compound 225b, 7-benzyl-4-(pyrrolidin-1-yl)-N-(1-(3,4,5-trimethoxyphenyl)-1H-imidazol-4-yl)-5,6,7,8-tetrahydropyrido[3,4-d]pyrimidin-2-amine]",< 100
9,"COc1cc(-n2cnc(Nc3nc4c(c(N5CCC[C@H]5CO)n3)CCCC4)c2)cc(OC)c1OC [Compound 226c, (S)-(1-(2-((1-(3,4,5-trimethoxyphenyl)-1H-imidazol-4-yl)amino)-5,6,7,8-tetrahydroquinazolin-4-yl)pyrrolidin-2-yl)methanol]",< 100
10,"COc1cc(-n2cnc(Nc3nc(N4CCC[C@@H]4CO)c4cccn4n3)c2)cc(OC)c1OC [Compound 227b, (R)-(1-(2-((1-(3,4,5-trimethoxyphenyl)-1H-imidazol-4-yl)amino)pyrrolo[2,1-f][1,2,4]triazin-4-yl)pyrrolidin-2-yl)methanol]",100 to 1000
11,"COc1cncc(-n2cnc(Nc3nc(N4CCC[C@H]4CO)c4cccn4n3)c2)c1 [Compound 228d, (S)-(1-(2-((1-(5-methoxypyridin-3-yl)-1H-imidazol-4-yl)amino)pyrrolo[2,1-f][1,2,4]triazin-4-yl)pyrrolidin-2-yl)methanol]",100 to 1000
12,"COc1ccc(-n2cnc(Nc3nc(N4CCC[C@H]4CO)c4cccn4n3)c2)cc1C(F)(F)F [Compound 229d, (S)-(1-(2-((1-(4-methoxy-3-(trifluoromethyl)phenyl)-1H-imidazol-4-yl)amino)pyrrolo[2,1-f][1,2,4]triazin-4-yl)pyrrolidin-2-yl)methanol]",100 to 1000

# Further lines, results first:
row,IC50 [nM],Compound
1,> 1000,"COc1cc(-n2cnc(Nc3nc(N4CCC[C@H]4C(N)=O)c4cccn4n3)c2)cc(C(N)=O)c1OC [Compound 230f, (S)-1-(2-((1-(3-carbamoyl-4,5-dimethoxyphenyl)-1H-imidazol-4-yl)amino)pyrrolo[2,1-f][1,2,4]triazin-4-yl)pyrrolidine-2-carboxamide]"
2,100 to 1000,"COc1cc(-n2cnc(Nc3nc(N4CCC[C@H]4CO)c4cccn4n3)c2)cc(C(N)=O)c1OC [Compound 231a, (S)-5-(4-((4-(2-(hydroxymethyl)pyrrolidin-1-yl)pyrrolo[2,1-f][1,2,4]triazin-2-yl)amino)-1H-imidazol-1-yl)-2,3-dimethoxybenzamide]"
3,100 to 1000,"COc1cc(-n2cnc(Nc3nc(N4CCCC4)c4ncsc4n3)c2)cc(OC)c1OC [Compound 233b, 7-(pyrrolidin-1-yl)-N-(1-(3,4,5-trimethoxyphenyl)-1H-imidazol-4-yl)thiazolo[5,4-d]pyrimidin-5-amine]"
4,100 to 1000,"COc1cc(-n2cnc(Nc3nc(N4CCC[C@H]4CO)c4cccn4n3)c2)cc(C(C)=O)c1OC [Compound 234e, (S)-1-(5-(4-((4-(2-(hydroxymethyl)pyrrolidin-1-yl)pyrrolo[2,1-f][1,2,4]triazin-2-yl)amino)-1H-imidazol-1-yl)-2,3-dimethoxyphenyl)ethanone]"
5,< 100,"COc1cc(-n2cnc(Nc3nc(N4CCN(C)CC4)nc4ccoc34)c2)cc(OC)c1OC [Compound 235a, 2-(4-methylpiperazin-1-yl)-N-(1-(3,4,5-trimethoxyphenyl)-1H-imidazol-4-yl)furo[3,2-d]pyrimidin-4-amine]"
6,< 100,"COc1cc(-n2cnc(Nc3nc(N4CC[C@@H](O)C4)nc4ccoc34)c2)cc(OC)c1OC [Compound 236a, (R)-1-(4-((1-(3,4,5-trimethoxyphenyl)-1H-imidazol-4-yl)amino)furo[3,2-d]pyrimidin-2-yl)pyrrolidin-3-ol]"
7,< 100,"COc1cc(-n2cnc(Nc3nc(N4CC[C@H](O)C4)nc4ccoc34)c2)cc(OC)c1OC [Compound 237a, (S)-1-(4-((1-(3,4,5-trimethoxyphenyl)-1H-imidazol-4-yl)amino)furo[3,2-d]pyrimidin-2-yl)pyrrolidin-3-ol]"
8,< 100,"COc1cc(-n2cnc(Nc3nc(N4CCC[C@@H]4CO)nn4cccc34)c2)cc(OC)c1OC [Compound 238a, (R)-(1-(4-((1-(3,4,5-trimethoxyphenyl)-1H-imidazol-4-yl)amino)pyrrolo[2,1-f][1,2,4]triazin-2-yl)pyrrolidin-2-yl)methanol]"
9,< 100,"COc1cc(-n2cnc(Nc3nc4c(c(N5CCC[C@H]5CO)n3)CN(C(=O)C3CC3)CC4)c2)cc(OC)c1OC [Compound 239a, (S)-cyclopropyl(4-(2-(hydroxymethyl)pyrrolidin-1-yl)-2-((1-(3,4,5-trimethoxyphenyl)-1H-imidazol-4-yl)amino)-7,8-dihydropyrido[4,3-d]pyrimidin-6(5H)-yl)methanone]"

# From US11661426B2, “Imidazole-containing inhibitors of ALK2 kinase” (BioCryst Pharmaceuticals, Inc., priority 2017, dated 2023)
